Results: patent US11542488B2, “Sortase synthesized chimeric antigen receptors” (Novartis AG, priority 2014, dated 2023)
Read-outs that look alike come from different tables or passages of the source.

How the values were obtained:
[1] = test system: huCART19 cells; test: 4 day co-culture proliferation assay of CARTs with Nalm-6 cells in the presence of RAD001; assay type: cell-based, human
Source text: A humanized, anti-human CD19 CAR (huCART19) lentiviral transfer vector was used to produce the genomic material packaged into VSVg pseudotyped lentiviral particles. The amino acid and nucleotide sequence of the humanized anti-human CD19 CAR (huCART19) is CAR 1, ID 104875, described in PCT publication, WO2014/153270, filed Mar. 15, 2014, and is designated SEQ ID NOs. 85 and 31 therein.
Lentiviral transfer vector DNA is mixed with the three packaging components VSVg env, gag/pol and rev in combination with lipofectamine reagent to transfect Lenti-X 293T cells. Medium is changed after 24 h and 30 h thereafter, the virus-containing media is collected, filtered and stored at −80° C. CARTs are generated by transduction of fresh or frozen naïve T cells obtained by negative magnetic selection of healthy donor blood or leukopak. T cells are activated by incubation with anti-CD3/anti-CD28 beads for 24 h, after which viral supernatant or concentrated virus (MOI=2 or 10, respectively) is added to the cultures. The modified T cells are allowed to expand for about 10 days. The percentage of cells transduced (expressing the CARs on the cell surface) and the level of CAR expression (relative fluorescence intensity, Geo Mean) are determined by flow cytometric analysis between days 7 and 9. The combination of slowing growth rate and T cell size approaching ˜350 fL determines the state for T cells to be cryopreserved for later analysis.
To evaluate the functionality of CARTs, the T cells are thawed and counted, and viability is assessed by Cellometer. The number of CAR-positive cells in each culture is normalized using non-transduced T cells (UTD). The impact of RAD001 on CARTs was tested in titrations with RAD001, starting at 50 nM. The target cell line used in all co-culture experiments is Nalm-6, a human pre-B cell acute lymphoblastic leukemia (ALL) cell line expressing CD19 and transduced to express luciferase.
For measuring the proliferation of CARTs, T cells are cultured with target cells at a ratio of 1:1. The assay is run for 4 days, when cells are stained for CD3, CD4, CD8 and CAR expression. The number of T cells is assessed by flow cytometry using counting beads as reference.

[2] = Pharmacokinetics of RAD001 in the blood of NSG mice with NALM6 tumors; assay type: in vivo; settings: for concentration at 24 h: mouse, blood
Experimental: (§1) RAD001 dosing: A concentrated micro-emulsion of 50 mg equal to 1 mg RAD001 was formulated and then resuspended in D5W (dextrose 5% in water) at the time of dosing. Mice were orally dosed daily (via oral gavage) with 200 μl of the desired doses of RAD001.
PK analysis: Mice were dosed daily with RAD001 starting 7 days post tumor implantation. Dosing groups were as follows: 0.3 mg/kg, 1 mg/kg, 3 mg/kg, and 10 mg/kg. Mice were bled on days 0 and 14 following the first and last dose of RAD001, at the following time points for PK analysis: 15 minutes, 30 minutes, 1 hour, 2 hours, 4 hours, 8 hours, 12 hours, and 24 hours.

[3] = test system: huCAR19 CAR T cells; test: In vivo proliferation of humanized CD19 CAR T cells with and without RAD001 dosing; set-up: species or system NSG mice
Experimental: (§2) Tumor implantation: NALM6-luc cells were grown and expanded in vitro in RPMI supplemented with 10% heat inactivated fetal bovine serum. The cells were then transferred to a 15 ml conical tube and washed twice with cold sterile PBS. NALM6-luc cells were then counted and resuspended at a concentration of 10×10^6 cells per milliliter of PBS. The cells were placed on ice and immediately (within one hour) implanted in the mice. NALM6-luc cells were injected intravenously via the tail vein in a 100 μl volume, for a total of 1×10^6 cells per mouse.
CAR T cell dosing: Mice were administered 5×10^6 CAR T cells 7 days after tumor implantation. Cells were partially thawed in a 37 degree Celsius water bath and then completely thawed by the addition of 1 ml of cold sterile PBS to the tube containing the cells. The thawed cells were transferred to a 15 ml falcon tube and adjusted to a final volume of 10 mls with PBS. The cells were washed twice at 1000 rpm for 10 minutes each time and then counted on a hemocytometer. T cells were then resuspended at a concentration of 50×10^6 CAR T cells per ml of cold PBS and kept on ice until the mice were dosed. The mice were injected intravenously via the tail vein with 100 μl of the CAR T cells for a dose of 5×10^6 CAR T cells per mouse. Eight mice per group were treated either with 100 μl of PBS alone (PBS), or humanized CD19 CAR T cells.
as §1
Based on these doses, huCAR19 CAR T cells were dosed with and without RAD001 to determine the proliferative ability of these cells. The highest dose used was 3 mg/kg based on the levels of RAD001 in the blood 24 hours after dosing. As the concentration of RAD001 was above 10 nM 24 hours after the final dose of RAD001, several lower doses of RAD001 were used in the in vivo study with CAR T cells. The CAR T cells were dosed IV one day prior to the start of the daily oral RAD001 dosing. Mice were monitored via FACS for T cell expansion.

[4] = test system: NALM6-luc tumors; test: Tumor growth of NALM6-luc cells in NSG mice with daily RAD001 dosing; assay type: in vivo; settings: daily oral dosing of RAD001 alone, 0.3, 1, 3 and 10 mg/kg
Experimental: NALM6-luc cells: The NALM6 human acute lymphoblastic leukemia (ALL) cell line was developed from the peripheral blood of a patient with relapsed ALL. The cells were then tagged with firefly luciferase. These suspension cells grow in RPMI supplemented with 10% heat inactivated fetal bovine serum.
Mice: 6 week old NSG (NOD.Cg-PrkdcscidIl2rgtm1Wjl/SzJ) mice were received from the Jackson Laboratory (stock number 005557).
as §2, §1

CO[C@H]1C[C@@H]2CC[C@@H](C)[C@@](O)(O2)C(=O)C(=O)N2CCCC[C@H]2C(=O)O[C@H]([C@H](C)C[C@@H]2CC[C@@H](OCCO)[C@H](OC)C2)CC(=O)[C@H](C)/C=C(\C)[C@@H](O)[C@@H](OC)C(=O)[C@H](C)C[C@H](C)/C=C/C=C/C=C/1C [RAD001, (1R,9S,12S,15R,16E,18R,19R,21R,23S,24E,26E,28E,30S,32S,35R)-1,18-dihydroxy-12-{(1R)-2-[(1S,3R,4R)-4-(2-hydroxyethoxy)-3-methoxycyclohexyl]-1-methylethyl}-19,30-dimethoxy-15,17,21,23,29,35-hexamethyl-11,36-dioxa-4-aza-tricyclo[30.3.1.04,9]hexatriaconta-16,24,26,28-tetraene-2,3,10,14,20-pentaone]
proliferation of huCART19 cells versus no RAD001 ([1]; 0.0032 nM RAD001): higher than observed without the addition of RAD001 | proliferation of huCART19 cells versus no RAD001 ([1]; 0.016 nM RAD001): higher than observed without the addition of RAD001 | RAD001 concentration at which huCART19 cells expanded ([1]; 4 day co-culture with Nalm-6, ratio 1:1): less than 0.016 nM | proliferation of CAR-expressing, transduced T cells ([1]; low doses of RAD001, cell culture system, FIG. 12): enhanced | concentration at 24 h ([2]; NSG, lowest dose tested (0.3 mg/kg), oral, read-out: RAD001 concentration in the blood 24 hours after dosing): > 10 nM | stability in the blood of tumor bearing mice ([2]; daily oral dosing, NSG mice): fairly stable | RAD001 concentration in the blood 24 hours after dosing ([2]; day 14, lowest dose tested (0.3 mg/kg), oral): above 10 nm | concentration at 24 h ([2]; 0.3 mg/kg, NSG mice, daily oral dosing, read-out: concentration of RAD001 24 hours after the final dose): > 10 nM | CAR T cell proliferation in vivo versus normal level of huCAR19 proliferation ([3]; 0.003 mg/kg RAD001 daily): enhancement in CAR T cell proliferation | enhanced proliferation, CD4+ CAR T cells compared with CD8+ CAR T cells ([3]; lowest doses of RAD001): more evident and prolonged | proliferation of CD8+ CAR T cells in vivo ([3]; lowest doses of RAD001): enhanced proliferation can be seen at early time points | proliferation of the CAR T cells in vivo ([3]; lowest doses of RAD001, daily oral): enhanced proliferation | growth of NALM6-luc tumors [4]: did not have an impact on the growth of NALM6-luc tumors
